Measured values published in patent US10512268B2, “Herbicidal compounds” (Syngenta Participations AG, priority 2015, dated 2019).

Tests used:
Type in all cases: in vivo
[1] = system: Alopecurus myosuroides (ALOMY); assay: Comparative testing, glasshouse herbicide test, spray one day after sowing
Procedure: (§1) Seeds of a variety of test species are sown in standard soil in pots. After cultivation for one day under controlled conditions in a glasshouse (at 24/16° C., day/night; 14 hours light; 65% humidity), an aqueous spray solution derived from the formulation of the technical active ingredient in 0.6 ml acetone and 45 ml formulation solution containing 10.6% Emulsogen EL (Registry number 61791-12-6), 42.2% N-methyl pyrrolidone, 42.2% dipropylene glycol monomethyl ether (CAS RN 34590-94-8) and 0.2% X-77 (CAS RN 11097-66-8) is applied.
(§2) The test plants are then grown in a glasshouse under controlled conditions in a glasshouse (at 24/16° C., day/night; 14 hours light; 65% humidity) and watered twice daily. After 21 days, the test is evaluated (100=total damage to plant; 0=no damage to plant). Test plants (weed species) include: Alopecurus myosuroides (ALOMY), Bidens pilosa (BIDPI), Euphorbia heterophylla (EPHHL), Lolium perenne (LOLPE), Panicum milaceum (PANMI), Sida spinosa (SIDSP) and Stellaria media STEME).

Bidens pilosa (BIDPI) = assay: as above
Procedure: as §1, §2

[2] = system: Euphorbia heterophylla (EPHHL); assay: as above
Procedure: as §1, §2

Lolium perenne (LOLPE) [3] = assay: as above
Procedure: as §1, §2

Panicum milaceum (PANMI) = assay: as above
Procedure: as §1, §2

Sida spinosa (SIDSP) = assay: as above
Procedure: as §1, §2

Stellaria media (STEME) = assay: as above
Procedure: as §1, §2

[4] = system: Amaranthus retoflexus (AMARE); assay: Further testing, post-emergence application; details: 1000 g/h, after 13 days
Procedure: (§3) Seeds of a variety of test species are sown in standard soil in pots (Lolium perenne (LOLPE), Solanum nigrum (SOLNI), Amaranthus retoflexus (AMARE), Setaria faberi (SETFA), Echinochloa crus-galli (ECHCG), Ipomoea hederacea (IPOHE)). After cultivation for one day (pre-emergence) or after 8 days cultivation (post-emergence) under controlled conditions in a glasshouse (at 24/16° C., day/night; 14 hours light; 65% humidity), the plants are sprayed with an aqueous spray solution derived from the formulation of the technical active ingredient in acetone/water (50:50) solution containing 0.5% Tween 20 (polyoxyethelyene sorbitan monolaurate, CAS RN 9005-64-5). Compounds are applied at 1000 g/h unless otherwise stated. The test plants are then grown in a glasshouse under controlled conditions in a glasshouse (at 24/16° C., day/night; 14 hours light; 65% humidity) and watered twice daily. After 13 days for pre and post-emergence, the test is evaluated for the percentage damage caused to the plant. The biological activities are shown in the following table on a five point scale (5=80-100%; 4=60-79%; 3=40-59%; 2=20-39%; 1=0-19%).

[5] = system: Echinochloa crus-galli (ECHCG); assay: Further testing, post-emergence application; details: 1000 g/h, after 13 days
Procedure: as §3

[6] = system: Ipomoea hederacea (IPOHE); assay: Further testing, post-emergence application; details: 1000 g/h, after 13 days
Procedure: as §3

Lolium perenne (LOLPE) [7] = assay: Further testing, post-emergence application; details: 1000 g/h, after 13 days
Procedure: as §3

Setaria faberi (SETFA) [8] = assay: Further testing, post-emergence application; details: 1000 g/h, after 13 days
Procedure: as §3

Solanum nigrum (SOLNI) [9] = assay: Further testing, post-emergence application; details: 1000 g/h, after 13 days
Procedure: as §3

[10] = system: Amaranthus retoflexus (AMARE); assay: Further testing, pre-emergence application; details: 1000 g/h, after 13 days
Procedure: as §3

[11] = system: Echinochloa crus-galli (ECHCG); assay: Further testing, pre-emergence application; details: 1000 g/h, after 13 days
Procedure: as §3

[12] = system: Ipomoea hederacea (IPOHE); assay: Further testing, pre-emergence application; details: 1000 g/h, after 13 days
Procedure: as §3

Lolium perenne (LOLPE) [13] = assay: Further testing, pre-emergence application; details: 1000 g/h, after 13 days
Procedure: as §3

Setaria faberi (SETFA) [14] = assay: Further testing, pre-emergence application; details: 1000 g/h, after 13 days
Procedure: as §3

Solanum nigrum (SOLNI) [15] = assay: Further testing, pre-emergence application; details: 1000 g/h, after 13 days
Procedure: as §3

[16] = Rate 125, evaluated after 21 days
[17] = Rate 250, evaluated after 21 days

| Structure (SMILES) | damage to plant (100=total damage to plant; 0=no damage to plant) [1, 16] | damage to plant (100=total damage to plant; 0=no damage to plant) [1, 17] | damage to plant (100=total damage to plant; 0=no damage to plant) (Bidens pilosa (BIDPI); [16]) | damage to plant (100=total damage to plant; 0=no damage to plant) (Bidens pilosa (BIDPI); [17]) | damage to plant (100=total damage to plant; 0=no damage to plant) [2, 16] | damage to plant (100=total damage to plant; 0=no damage to plant) [2, 17] | damage to plant (100=total damage to plant; 0=no damage to plant) (Lolium perenne (LOLPE) [3]; [16]) | damage to plant (100=total damage to plant; 0=no damage to plant) (Lolium perenne (LOLPE) [3]; [17]) | damage to plant (100=total damage to plant; 0=no damage to plant) (Panicum milaceum (PANMI); [16]) | damage to plant (100=total damage to plant; 0=no damage to plant) (Panicum milaceum (PANMI); [17]) | damage to plant (100=total damage to plant; 0=no damage to plant) (Sida spinosa (SIDSP); [16]) | damage to plant (100=total damage to plant; 0=no damage to plant) (Sida spinosa (SIDSP); [17]) | damage to plant (100=total damage to plant; 0=no damage to plant) (Stellaria media (STEME); [16]) | damage to plant (100=total damage to plant; 0=no damage to plant) (Stellaria media (STEME); [17]) | other results |
| --- | --- | --- | --- | --- | --- | --- | --- | --- | --- | --- | --- | --- | --- | --- | --- |
| Cn1nnnc1NC(=O)c1nn(C)c(=O)c(C2CCCCC2)c1Cl [Compound 1.001] | 40 | 40 | 100 | 100 | 90 | 90 | 60 | 60 | 80 | 80 | 90 | 90 | 100 | 100 | percentage damage caused to the plant, five point scale [4]: 5 (5=80-100%); percentage damage caused to the plant, five point scale [5]: 5 (5=80-100%); percentage damage caused to the plant, five point scale [6]: 5 (5=80-100%); percentage damage caused to the plant, five point scale (Lolium perenne (LOLPE) [7]): 5 (5=80-100%); percentage damage caused to the plant, five point scale (Setaria faberi (SETFA) [8]): 5 (5=80-100%); percentage damage caused to the plant, five point scale (Solanum nigrum (SOLNI) [9]): 5 (5=80-100%); percentage damage caused to the plant, five point scale [10]: 5 (5=80-100%); percentage damage caused to the plant, five point scale [11]: 5 (5=80-100%); percentage damage caused to the plant, five point scale [12]: 5 (5=80-100%); percentage damage caused to the plant, five point scale (Lolium perenne (LOLPE) [13]): 5 (5=80-100%); percentage damage caused to the plant, five point scale (Setaria faberi (SETFA) [14]): 5 (5=80-100%); percentage damage caused to the plant, five point scale (Solanum nigrum (SOLNI) [15]): 5 (5=80-100%) |
| Cn1nc(C(=O)C2C(=O)CCCC2=O)c(Cl)c(C2CCCCC2)c1=O [Compound A, 2-(4-chloro-5-cyclohexyl-1-methyl-6-oxo-pyridazine-3-carbonyl)cyclohexane-1,3-dione, reference compound] | 0 | 20 | 0 | 40 | 0 | 20 | 10 | 20 | 0 | 0 | 0 | 0 | 50 | 60 |  |
